Results taken from patent US8642540B2 (Zealand Pharma A/S, priority 2008, dated 2014).
Like-named read-outs stand apart in the source and are kept apart here. Non-standard residues stand in square brackets, D forms with d. Residues, ends and D or L forms follow the SMILES beside them.

Legend:
human Glucagon-R = target: T1, human Glucagon-R (Homo sapiens, UniProt P47871); test: Glucagon receptor efficacy assay (cAMP in HEK293 cells); type: cell-based; conditions: HEK293 cells expressing human Glucagon-R, 15 min at 37° C., read-out: GLUR EC50
T1 construct: expressed in transfected cells
Protocol: (§1) The 5′-end primers additionally encoded a near Kozak consensus sequence to ensure efficient translation.
(§2) 48 hr after transfection cells were seeded for limited dilution cloning and selected with 1 mg/ml G418 in the culture medium.
(§3) On the day of analysis, growth medium was removed and the cells washed once with 200 μl Tyrode buffer. Cells were incubated in 100 μl Tyrode buffer containing increasing concentrations of test peptides, 100 μM IBMX, and 6 mM glucose for 15 min at 37° C. The reaction was stopped by addition of 25 μl 0.5 M HCl and incubated on ice for 60 min. The cAMP content was estimated using the FlashPlate® cAMP kit from Perkin-Elmer.

[1] = test system: primary rat adipocyte cultures; type: cell-based; conditions: for lipolysis potency relative to OXM / Stimulation of lipolysis EC50: primary rat adipocyte cultures; for Stimulation of lipolysis EC50: 60 min at 37° C., glycerol formed
Protocol: Adipocytes were isolated from epididymal fat dissected from normal young adult Sprague-Dawley rats. The fat lumps were minced, incubated and shaken (220 rpm) with collagenase (1 mg/ml) in Krebs-Ringer buffer containing 4% BSA (KRB-BSA) for 60 minutes at 37° C. The suspension was filtered through a nylon filter (160 μm pore size) and the filtrate centrifuged at 200×g for 3 min. The subjacent medium beneath the upper floating layer of adipocytes was removed with a Pasteur-pipette. The adipocytes were washed 3 times in KRB-BSA buffer by re-suspension and centrifugation. The adipocytes were re-suspended in KRB-BSA, mixed, incubated in and shaken with test compounds in 96-deep well plates (50,000 cells/well) in a total volume of 1 ml at 37° C. for 60 min. The plates were placed on ice for at least 10 min after incubation followed by centrifugation at 200×g for 3 min. 300 μl of the buffer beneath the adipocyte layer were collected in a 96-deep well plate. This process was repeated two more times and the 3 extracts collected from each culture pooled together.

human GLP-1-R = target: T2, human GLP-1-R (Homo sapiens, UniProt P43220); test: GLP-1 receptor efficacy assay (cAMP in HEK293 cells); type: cell-based; conditions: HEK293 cells expressing human GLP-1-R, 15 min at 37° C.
T2 construct: expressed in transfected cells
Protocol: as §1, §2, §3

diet induced obese mice = test: 28 day treatment of diet induced obese (DIO) mice, body weight gain; type: in vivo, mouse; conditions: C57Bl/6 male mice on high fat diet, 500 nmol/kg b.i.d. s.c., 28 days
Protocol: Effects of 28 Day Treatment of Diet Induced Obese (DIO) Mice with ZP2495 (SEQ ID NO: 5) on Body Weight Gain Four weeks before drug treatments, C57Bl/6 male mice (7 weeks) (N=10-12 animals in each group) were put on high fat diet (HFD) and their day-night cycle reversed with lights On/Off at 2000/0800 hour. Experimental animals were conditioned to treatment by daily injections (s.c.) of 0.1 ml vehicle and acclimatized to handling by weighing them twice a week one week before start of drug administrations. The day before start of experiment, mice were stratified into groups with similar body weight (BW) and the next day groups of stratified mice were treated (b.i.d.; s.c.) with ZP2495 (SEQ ID NO: 5) (500 nmol/kg) or vehicle. A non-obese control group maintained on regular chow was treated with vehicle in the same treatment regime as the DIO groups. Body weights were recorded daily and used to administer the body weight-corrected doses of peptide throughout the study. Animals were fasted overnight before sacrifice. […] Body weight gains throughout the treatment period were calculated for each animal by subtracting its weight at the initiation of treatment.
The effects of treatment on body weight gain were assessed by 2-way ANOVA with repeated measures and Bonferoni post-hoc analyses were using with GraphPad Prism version 4. […]

T2 sequence (P43220 24-463): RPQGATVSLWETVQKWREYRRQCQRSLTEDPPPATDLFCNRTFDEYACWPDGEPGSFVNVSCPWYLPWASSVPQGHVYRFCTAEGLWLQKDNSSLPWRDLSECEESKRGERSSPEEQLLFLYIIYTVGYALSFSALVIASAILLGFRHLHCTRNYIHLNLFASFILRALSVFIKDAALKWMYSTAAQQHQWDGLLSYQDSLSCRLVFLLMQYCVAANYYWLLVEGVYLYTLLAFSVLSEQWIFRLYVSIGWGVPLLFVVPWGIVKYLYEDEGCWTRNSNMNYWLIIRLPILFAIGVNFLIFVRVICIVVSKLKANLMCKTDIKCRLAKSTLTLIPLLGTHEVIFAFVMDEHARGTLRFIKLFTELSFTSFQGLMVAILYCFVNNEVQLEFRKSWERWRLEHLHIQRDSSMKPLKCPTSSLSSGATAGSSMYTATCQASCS
T1 sequence (P47871 26-477): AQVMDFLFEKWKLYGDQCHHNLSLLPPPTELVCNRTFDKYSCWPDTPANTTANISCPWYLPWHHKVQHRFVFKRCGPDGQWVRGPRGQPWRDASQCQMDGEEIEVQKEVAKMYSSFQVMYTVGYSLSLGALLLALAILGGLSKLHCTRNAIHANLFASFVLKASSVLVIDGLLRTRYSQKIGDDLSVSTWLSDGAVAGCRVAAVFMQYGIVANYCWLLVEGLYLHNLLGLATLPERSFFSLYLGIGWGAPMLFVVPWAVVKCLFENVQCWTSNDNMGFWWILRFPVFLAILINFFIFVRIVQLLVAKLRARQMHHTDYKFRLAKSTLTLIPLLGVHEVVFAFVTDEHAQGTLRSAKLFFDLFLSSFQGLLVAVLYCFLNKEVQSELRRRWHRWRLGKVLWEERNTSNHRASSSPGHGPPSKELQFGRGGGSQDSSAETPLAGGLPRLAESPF

| Molecule | EC50 (human Glucagon-R) [nM] | EC50 [1] [nM] | EC50 (human GLP-1-R) [nM] | body weight gain versus vehicle group (diet induced obese mice; 2-way ANOVA, p<0.05) | body weight gain (diet induced obese mice; compared with chow-fed controls) | lipolysis potency relative to OXM [1] | Stimulation of lipolysis EC50 [1] | Stimulation of lipolysis EC50 ([1]; listed as exendin-4) |
| --- | --- | --- | --- | --- | --- | --- | --- | --- |
| H-HSQGTFTSDYSKYLDRARADDFVAWLKEA-NH2 [ZP2635] | 0.2 | 93 | 0.2 |  |  |  |  |  |
| H-HSQGTFTSDYSKYLDRARADDFVAWLERA-NH2 [ZP2650] |  | 15 | 0.8 |  |  |  |  |  |
| CC(C)C[C@H](NC(=O)[C@H](Cc1c[nH]c2ccccc12)NC(=O)[C@H](C)NC(=O)[C@@H](NC(=O)[C@H](Cc1ccccc1)NC(=O)[C@H](CC(=O)O)NC(=O)[C@H](CC(=O)O)NC(=O)[C@H](C)NC(=O)[C@H](CCCNC(=N)N)NC(=O)[C@H](C)NC(=O)[C@H](CCCNC(=N)N)NC(=O)[C@H](CC(=O)O)NC(=O)[C@H](CC(C)C)NC(=O)[C@H](Cc1ccc(O)cc1)NC(=O)[C@H](CCCCN)NC(=O)[C@H](CO)NC(=O)[C@H](Cc1ccc(O)cc1)NC(=O)[C@H](CC(=O)O)NC(=O)[C@H](CO)NC(=O)[C@@H](NC(=O)[C@H](Cc1ccccc1)NC(=O)[C@@H](NC(=O)CNC(=O)[C@H](CCC(N)=O)NC(=O)[C@@H](CO)NC(=O)[C@@H](N)Cc1c[nH]cn1)[C@@H](C)O)[C@@H](C)O)C(C)C)C(=O)N[C@@H](CCCCN)C(=O)N[C@@H](CO)C(=O)N[C@H](C(N)=O)[C@@H](C)O [ZP2654] (H-H[dS]QGTFTSDYSKYLDRARADDFVAWLKST-NH2) | 0.5 | 326 | 0.8 |  |  |  |  |  |
| H-HSQGTFTSDYSKYLDRARAEDFVAWLKST-NH2 [ZP2637] | 0.2 | 42 | 0.1 |  |  |  |  |  |
| H-HSQGTFTSDYSKYLDRARADDFVAWLKST-NH2 [ZP2495] |  | 137 |  | statistically significantly less than observed in the vehicle group | decreased body weight gain to a level similar to that observed with chow feeding | equipotent with OXM |  |  |
| Exendin-4 [reference compound] |  |  |  |  |  |  | No effect | no effect |
| H-HSQGTFTSDYSKYLDRARADDFVAWLKSA-NH2 [ZP2634] | 0.5 | 127 | 0.2 |  |  | equipotent with OXM |  |  |
| H-HSQGTFTSDYSKYLDRARADDFVEWLKST-NH2 [ZP2649] |  | 57 | 0.1 |  |  |  |  |  |
| H-HSQGTFTSDYSKYLDRARAHDFVAWLKST-NH2 [ZP2648] | 0.2 | 26 | 0.1 |  |  |  |  |  |
